From article PMC11306511, “Combining VPS34 inhibitors with STING agonists enhances type I interferon signaling and anti‐tumor efficacy” (Molecular Oncology, 2024)

What was measured:
In vivo mouse PK = assay: In vivo mouse PK
Experimental: Experiments were conducted at Aragen Life Sciences Ltd. (Hyderabad, India) according to internal standard procedures.

[1] = PK profiling in H1299-GFP-2xFYVE tumor-bearing mice (plasma and tumor); assay type: in vivo, mouse
Experimental: (§1) The study was performed by Truly Translational AB (Lund, Sweden) following Swedish legislations and approved by the ethical committee Malmö/Lunds djurförsöksetiska nämnd (M120‐15). Animals were housed 5/cage in polysulfone IVC cages at a constant temperature with 12 h light‐dark cycles and free access to food, tap water, and cage enrichment. Animals were allowed to acclimatize to the housing conditions for at least a week before the start of experiments. Female 8‐week‐old NOD.Cg‐Prkdc^ scid Il2rg^ tm1Sug /JicTac (CIEA‐NOG®) mice (supplied by Taconic Biosciences, Rensselaer, NY, USA; n = 42) were implanted subcutaneously with 1.75 × 10^6 H1299‐GFP2xFYVE cells in serum‐free RPMI in 50% Matrigel. When tumors reached 300–400 mm^3 mice were randomized and dosed with 9 or 29 mg·kg^−1 SB02024 or vehicle (PEG 200 (98%)/Polysorbate (2%)). At indicated time points after dosing, blood samples were taken by heart puncture and tumors were removed. Pharmacokinetic (PK) analysis (plasma and tumor samples) was performed by Q&Q Labs (Gothenburg, Sweden). Plasma was precipitated with acetonitrile, and after centrifugation, the soluble material was recovered. Tumor of 50–150 mg was homogenized mechanically in the presence of 5× acetonitrile relative to tissue weight using Precellys Tissue Homogenizer (Bertin Technologies, Montigny‐le‐Bretonneux, France). Samples were centrifuged and soluble material was kept for further analysis. SB02024 levels were determined using UHPLC‐QQQ: Agilent 6460 (LC–MS/MS; Agilent Technologies, Santa Clara, CA, USA). Pharmacodynamic (PD) analysis of GFP2xFYVE punctae was performed by Offspring Biosciences (Södertalje, Sweden). H1299‐GFP2xFYVE tumors were fixed by immersion in 4% formalin in PBS for 72 h at 4 °C, sampled randomly by six biopsies (diameter 1 mm), and reassembled into three separate tumor microarrays (TMAs). Each TMA block was sectioned and analyzed at eight equally spaced levels. The immunohistochemical staining was performed using the Ventana Discovery XT protocol. […]

VPS34 activity = assay: PD: GFP-2xFYVE puncta in H1299 tumors (immunohistochemistry); assay type: in vivo, mouse; details: 9 or 29 mg·kg^−1 oral
Experimental: as §1, with “Tumor of 50–150 mg was homogenized mechanically in the presence of 5× acetonitrile relative to tissue weight using Precellys Tissue Homogenizer (Bertin Technologies, Montigny‐le‐Bretonneux, France). Samples were centrifuged and soluble material was kept for further analysis.” left out, “Pharmacodynamic (PD) analysis of GFP2xFYVE punctae was performed by Offspring Biosciences (Södertalje, Sweden). H1299‐GFP2xFYVE tumors were fixed by immersion in 4% formalin in PBS for 72 h at 4 °C, sampled randomly by six biopsies (diameter 1 mm), and reassembled into three separate tumor microarrays (TMAs).” left out, “levels.” for “levels. The immunohistochemical staining was performed using the Ventana Discovery XT protocol.”

CCL5 and CXCL10 = assay: Plasma CCL5/CXCL10 in Renca tumor-bearing mice (Mesoscale Discovery); assay type: in vivo, mouse; details: Renca tumor-bearing BALB/c mice, 20 mg·kg^−1 oral daily, vs vehicle
Excerpt: Study protocols were approved by the Institutional Animal Care and Use Committee of CrownBio in China (AN‐1903‐05‐313) or the LIH's animal welfare committee in Luxembourg (agreement LECR‐2018‐12). Mice were handled according to European Union guidelines, adhering to the principles of replacement, reduction, and refinement (3Rs). Animals were housed in appropriate accommodations conducive to their well‐being, with provisions for housing, feeding, and environmental enrichment to meet their physical and behavioral needs. Highly skilled personnel were involved in carrying out procedures related to the animal experiments to ensure proper care and handling. […] Tumor growth was measured using a caliper every other day and estimated as follows: volume (cm^3) = (width)^2 × length × 0.5.
Cell culture medium was centrifuged at 300 g for 10 min at 4 °C and supernatant stored at −80 °C. […] Cytokine levels were quantified using Mesoscale Discovery (MSD) assays: human CCL5 (#F21ZN), CXCL10 (#K151UFK), IFNβ (#K151VIK); mouse CCL5 (#K152A2K) and CXCL10 (#K152UFK). Low concentrations of human IFNβ were determined using High‐Sensitivity IFNβ ELISA (#41415‐1; PBL Assay Science, Piscataway, NJ, USA). CCL5/CXCL10 levels in some experiments were quantified using R&D Systems (Minneapolis, MN, USA) ELISAs: human CCL5 (#DY278) or CXCL10 (#DY266); mouse CCL5 (#DY478).

Renca tumors = assay: NanoString gene expression and network enrichment analysis of Renca tumors; assay type: in vivo, mouse
Excerpt: (§2) Study protocols were approved by the Institutional Animal Care and Use Committee of CrownBio in China (AN‐1903‐05‐313) or the LIH's animal welfare committee in Luxembourg (agreement LECR‐2018‐12). Mice were handled according to European Union guidelines, adhering to the principles of replacement, reduction, and refinement (3Rs). Animals were housed in appropriate accommodations conducive to their well‐being, with provisions for housing, feeding, and environmental enrichment to meet their physical and behavioral needs. Highly skilled personnel were involved in carrying out procedures related to the animal experiments to ensure proper care and handling. Female 6 to 8‐week‐old BALB/c (supplied by Shanghai Lingchang Biotechnology Co., Shanghai, China; n = 14) or C57BL/6 mice (supplied by Janvier Labs, Le Genest‐Saint‐Isle, France; n = 40) were injected into the right flank with 1 × 10^6 Renca or 0.2 × 10^6 B16‐F10 cells, respectively, resuspended in 100 μL PBS (day 0). When tumors were palpable (day 9 for Renca, day 7 for B16‐F10 tumors), mice were randomly assigned into two groups for the Renca model with n = 6 (vehicle) and n = 8 (SB02024) or four groups for the B16‐F10 model with n = 10. Daily treatment with 20 mg·kg^−1 SB02024 or vehicle (0.5% methylcellulose in water supplemented with 1% Tween‐80) was administered by oral gavage (day 9–16 for Renca, day 7–16 for B16‐F10 model). For combination studies, ADU‐S100 (10 μg in 40–50 μL PBS) or vehicle (PBS) treatment was administered by intratumoral injection (days 9, 11, 13, and 15). Tumor growth was measured using a caliper every other day and estimated as follows: volume (cm^3) = (width)^2 × length × 0.5.
Renca tumor RNA was isolated using the Rneasy Plus kit (#74134; Qiagen, Venlo, the Netherlands), quantified using a NanoDrop spectrophotometer (Thermo Fisher), and 100 ng was used as input for the nCounter PanCancer IO 360 mouse panel (NanoString Technologies, Seattle, WA, USA). Data were analyzed by NanoString's data analysis service. Network enrichment analysis (NEA) was carried out by Evi‐networks, Sweden (see detailed description in Table S2).

A-498 cells = assay: IFN/cytokine gene expression (qRT-PCR) and secretion (MSD) in A-498 cells; assay type: cell-based, human; details: 2 μM, 24 h, vs DMSO
Experimental: (§3) RNA was isolated using the PureLink kit (#12183018A; Thermo Fisher) and DNA‐binding columns (Rneasy plus kit, #74134; Qiagen) and/or Dnase treatment (#12185010; Thermo Fisher). After quantification using NanoDrop, 50 ng·μL^−1 RNA was used for cDNA synthesis with SuperScript IV VILO Master Mix (#11756050; Thermo Fisher). Quantitative RT‐PCR was run with diluted cDNA (1 : 25 or 1 : 12.5), PowerUp SYBR Green Master Mix (#A25741; Thermo Fisher), and 200 nM primers (see Table S3) on a CFX Connect RT‐PCR system (BioRad, Hercules, CA, USA). Data were analyzed using the ΔΔCT method.
(§4) Cell culture medium was centrifuged at 300 g for 10 min at 4 °C and supernatant stored at −80 °C. Mouse blood was collected at termination in K2‐EDTA tubes on ice, centrifuged at 1270 g for 10 min at 4 °C, and plasma was stored at −80 °C. Cytokine levels were quantified using Mesoscale Discovery (MSD) assays: human CCL5 (#F21ZN), CXCL10 (#K151UFK), IFNβ (#K151VIK); mouse CCL5 (#K152A2K) and CXCL10 (#K152UFK). Low concentrations of human IFNβ were determined using High‐Sensitivity IFNβ ELISA (#41415‐1; PBL Assay Science, Piscataway, NJ, USA). CCL5/CXCL10 levels in some experiments were quantified using R&D Systems (Minneapolis, MN, USA) ELISAs: human CCL5 (#DY278) or CXCL10 (#DY266); mouse CCL5 (#DY478).

B16-F10 cells = assay: IFN/cytokine gene expression (qRT-PCR) and secretion (MSD) in B16-F10 cells; assay type: cell-based, murine; details: 2 μM, 24 h, vs DMSO
Experimental: as §3, §4

Me30966 cells = assay: Gene expression (qRT-PCR) in Me30966 cells; assay type: cell-based, human; details: 2 μM, 24 h, vs DMSO
Experimental: (A) IFNB1 gene expression quantified by qRT-PCR after 24h treatment with DMSO control or 2 µM of VPS34 inhibitor
(=VPS34i, SB02024 or SAR405) in Me30966 cells.

B16-F10 tumors = assay: Tumor growth inhibition study, B16-F10 tumor-bearing mice; assay type: in vivo, mouse; details: B16-F10 in C57BL/6 mice; SB02024 20 mg·kg^−1 oral daily day 7-16; ADU-S100 10 μg intratumoral days 9, 11, 13, 15
Excerpt: as §2, with “Daily treatment with 20 mg·kg^−1 SB02024 or vehicle (0.5% methylcellulose in water supplemented with 1% Tween‐80) was administered by oral gavage (day 9–16 for Renca, day 7–16 for B16‐F10 model). For combination studies, ADU‐S100 (10 μg in 40–50 μL PBS) or vehicle (PBS) treatment was administered by intratumoral injection (days 9, 11, 13, and 15).” left out

[2] = 20 mg·kg^−1, NanoString, vs vehicle

- half-life (In vivo mouse PK; in vivo mouse PK, read-out: t½ (converted)): 1.15 h
- in vitro and in vivo clearance (in words) (In vivo mouse PK; mouse, in vivo): low
- bioavailability (In vivo mouse PK; po, in vivo mouse PK): 96%
- Cmax ([1]; female, NOD.Cg-Prkdc scid Il2rg tm1Sug/JicTac (CIEA-NOG), mouse, oral 29 mg·kg^−1, plasma and tumor, H1299-GFP-2xFYVE tumor-bearing CIEA NOG mice): ~10 µM
- half-life ([1]; female, NOD.Cg-Prkdc scid Il2rg tm1Sug/JicTac (CIEA-NOG), mouse, oral 29 mg·kg^−1, tumor and plasma concentrations): 2.5 h
- time of Cmax ([1]; oral 29 mg·kg^−1, plasma and tumor): 2 h
Compound: C[C@@H]1COCCN1c1cc(N2CCCC[C@@H]2C(F)(F)F)[nH]c(=O)c1 [SB02024]
- duration of inhibition of GFP-2xFYVE puncta formation (VPS34 activity): about 8 h
- GFP-2xFYVE puncta (autophagosome and endosome) formation in H1299 tumors (VPS34 activity; after 2 h): inhibited
- CCL5 and CXCL10 in blood plasma (CCL5 and CXCL10): significant increase
- Ptprc gene expression (CD45+ cells) in Renca tumors (Renca tumors; [2]): significantly increased
- gene signatures for cytotoxic cells, T cells, total and CD56dim NK cells, macrophages, neutrophils (Renca tumors; [2]): significant increase
- Reactome gene signature for STING-mediated signaling, enrichment (Renca tumors; NEA, r-mmu-3134975 as printed, treated tumors vs vehicle controls): enrichment
- STAT1 and IFN gene signature for ICB sensitivity (Zemek et al.), enrichment (Renca tumors; NEA, treated tumors vs vehicle controls): significantly enriched
- transcription of IFNB1 and ISGs IRF1, IRF7, IRF9 (A-498 cells): significantly increased
- transcription of IFNB1 and ISGs IRF1, IRF7, IRF9 (B16-F10 cells): significantly increased
- IFNB1 expression (Me30966 cells): significantly increased
- % TGI (percent tumor growth inhibition compared to vehicle control) (B16-F10 tumors): 27%
